From patent US20220062166A1, “Self-Gelling Solutions for Administration of Therapeutics to the Inner Ear” (Spiral Therapeutics, Inc., priority 2019, published 2022)

Legend:
[1] = test system: HEI-OC1 cells; test: Release of mitochondrial cyt c in HEI-OC1 cells with CisPt (flow cytometry); type: cell-based; details: HEI-OC1 cells; after CisPt alone or pre-incubated with LPT99
Method: Flow cytometry was also used to characterize the effect of LPT99 in the release of mitochondrial cyt c in HEI-OC1 cells in vitro with CisPt prevention. Results
The effect of LPT99 on proliferation of non-apoptotic cells was studied. A549 cells were cultured in the presence of LPT99 for up to 6 days; the cell number was monitored by flow cytometry, and doubling time was calculated.

[2] = test system: HEI-OC1 cells; test: HEI-OC1 cell viability with CisPt; type: cell-based; details: CisPt 0 to 5 μg/mL
[3] = GLP auditory safety study in rats after single TT administration
Method: The study consisted of 10 groups of rats: 6 groups for toxicology (Groups 1 to 6, 20 males and 20 females per group), and 4 groups for toxicokinetics (Groups 7 to 10, 6 males and 6 females per group).
All animals were assessed weekly for body weights and qualitative food consumption. In addition, otoscopic evaluation of the dosing sites (tympanic membrane, Groups 1 to 6) and ABR testing for hearing function were performed at predosing; and on Days 1, 7, and/or 14. Animals in the toxicology groups (Groups 1 to 6) were sacrificed on Day 1 (10 males and 10 females per group) and Day 14 (the remaining 10 males and 10 females per group). At necropsy, terminal blood samples were tested for hematology, serum chemistry, and coagulation parameters. Gross observations were recorded, and selected organs were weighed. One ear per animal in Groups 1 to 5 was collected and processed for cytocochleogram assessment.

Compound: N.N.[Cl][Pt][Cl] [CisPt, cisplatin, reference compound]
- release of mitochondrial cyt c [1]: 28% ±6.6%
- HEI-OC1 cell viability IC50 of CisPt [2]: 4.47 ± 1.94 µg/mL

Compound: gentamicin [reference compound]
- weight-normalized heart weights ([3]; Day 14, males, 400 mg/mL gentamicin vs saline controls, p≥0.05): increased weight-normalized heart weights
- otoscopic scores (erythema, edema, wounds) of tympanic membranes ([3]; Days 1, 7, 14 vs control): increases in otoscopic scores
